Earlier results in patent US12156864B2, “Analogs of cyclobenzaprine and amitryptilene” (TONIX PHARMACEUTICALS HOLDING CORP, priority 2017, dated 2024).

Experiments:
[1] = tested on: veterans and males with PTSD
fibromyalgia patients = details: cyclobenzaprine 10 to 40 mg, 12-week period
[2] = target: histaminergic1 (H1) receptor (Homo sapiens, UniProt P35367)
[3] = target: serotonin-2A (5-HT2A) receptor (Homo sapiens, UniProt P28223)
patients = details: oral doses sufficient to treat PTSD-associated sleep disorders
[4] = humans; metabolite formed via pathway b (N-dealkylation)
PTSD combat subsample = details: combat subsample (N=77) of a pooled analysis

Sequence of serotonin-2A (5-HT2A) receptor (P28223 whole entry, species assumed): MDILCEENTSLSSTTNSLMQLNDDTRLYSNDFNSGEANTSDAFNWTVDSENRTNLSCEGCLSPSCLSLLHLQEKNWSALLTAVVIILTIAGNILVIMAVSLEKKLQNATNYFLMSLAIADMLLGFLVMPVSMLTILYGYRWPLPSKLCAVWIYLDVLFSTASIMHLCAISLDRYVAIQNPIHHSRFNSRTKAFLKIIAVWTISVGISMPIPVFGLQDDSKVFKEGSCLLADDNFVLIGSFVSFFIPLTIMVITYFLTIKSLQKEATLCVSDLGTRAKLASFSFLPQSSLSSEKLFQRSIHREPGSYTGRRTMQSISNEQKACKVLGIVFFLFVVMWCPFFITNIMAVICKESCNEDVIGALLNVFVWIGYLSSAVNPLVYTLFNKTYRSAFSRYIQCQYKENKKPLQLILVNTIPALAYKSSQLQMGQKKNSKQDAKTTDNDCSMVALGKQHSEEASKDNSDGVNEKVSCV
Sequence of histaminergic1 (H1) receptor (P35367 whole entry): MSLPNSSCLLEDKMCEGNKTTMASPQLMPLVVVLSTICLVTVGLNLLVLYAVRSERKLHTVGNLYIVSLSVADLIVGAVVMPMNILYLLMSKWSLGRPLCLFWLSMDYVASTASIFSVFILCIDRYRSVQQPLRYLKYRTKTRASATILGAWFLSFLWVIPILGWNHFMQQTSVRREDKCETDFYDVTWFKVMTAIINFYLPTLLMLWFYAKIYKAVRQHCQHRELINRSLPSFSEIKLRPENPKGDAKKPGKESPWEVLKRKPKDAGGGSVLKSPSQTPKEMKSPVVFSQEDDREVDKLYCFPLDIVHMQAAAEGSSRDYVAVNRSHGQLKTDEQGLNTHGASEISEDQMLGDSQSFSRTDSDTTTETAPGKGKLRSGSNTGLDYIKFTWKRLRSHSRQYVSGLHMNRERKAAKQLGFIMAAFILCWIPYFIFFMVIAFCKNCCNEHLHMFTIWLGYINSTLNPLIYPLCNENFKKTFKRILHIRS

## CN[C@H]1CC[C@@H](c2ccc(Cl)c(Cl)c2)c2ccccc21 [Sertraline]
[1]
  efficacy in PTSD: failed to show efficacy

## CN(C)CCC=C1c2ccccc2C=Cc2ccccc21 [cyclobenzaprine, 3-(5H-dibenzo[a,d]cyclohepten-5-ylidene)-N,N-dimethyl-1-propanamine]
Fibromyalgia patients
  quality of sleep and pain score: significantly improved
  total number of tender points and muscle tightness: reduction
α1-adrenergic receptor
  binding and antagonist activity at α1-adrenergic receptor: high affinity binding and antagonist activity
[2]
  binding and antagonist activity at H1 receptor: high affinity binding and antagonist activity
[3]
  binding and antagonist activity at 5-HT2A receptor: high affinity binding and antagonist activity
patients
  next-day side effect: drowsiness the next day

## CNCCC=C1c2ccccc2C=Cc2ccccc21 [nor-cyclobenzaprine]
[4]
  half-life: ~48 h

## COc1ccc(C(CN(C)C)C2(O)CCCCC2)cc1 (stereo not drawn) [venlafaxine ER]
PTSD combat subsample
  effect on PTSD or disability: no effect
